Measurements published in PMC7118210 (Frontiers in Pharmacology, 2020).
Read-outs that look alike come from different tables or passages of the source.

Experiment: Single ascending dose and food-effect pharmacokinetics of naringin tablets in healthy humans
Format: in vivo, human
Conditions: for half-life / effect of a high-fat diet on t1/2, Tmax, Cmax and AUC / Tmax / AUC(0-inf) / AUC(0-t) / Cmax / MRT last / MRT inf / CL: human; for half-life / Tmax / AUC(0-inf) / AUC(0-t) / Cmax / MRT last / MRT inf: plasma; for effect of a high-fat diet on t1/2, Tmax, Cmax and AUC: food-effect trial, naringin 160 mg p.o.; for MRT last: read-out: MRT0-t; for MRT inf: read-out: MRT0-∞
Source text: Participants were healthy males and females, 18 to 40 years old, ≥50 kg weight, 19 to 25 kg m^2 body mass index. The health condition of participants was considered good based on the screened medical history, physical examination, vital signs, electrocardiogram, and laboratory examination. […] Clinical laboratory test results (sodium, potassium, total protein, white blood and red blood cell counts, hematocrit, hemoglobin, platelet count, aspartate aminotransferase, alanine aminotransferase, gamma-glutamyl transferase, blood urea nitrogen, creatinine, total bilirubin, alkaline phosphatase, creatine kinase, lactate dehydrogenase, calcium, chloride, phosphorus, albumin, globulin, cholesterol, triglycerides, glucose, uric acid, and urinalysis) had to be within normal ranges, without other clinically significant abnormalities. During the study duration, participants were required to use barrier contraception with spermicide during sexual intercourse. During the trial, female participants were in the nonmenstrual, nonpregnant, and nonlactation periods, and they were nonsmokers. Participants were not planning a pregnancy within 6 months of the clinical trials, they communicated with the investigator, understood and complied with the study requirements, and signed informed consent.
Using the Statistical Analysis System (SAS) software (Version 9.4, SAS Institute Inc., Cary, NC, USA), subject randomization and blinding/masking were performed by statisticians from the Department of Health Statistics at the Second Military Medical University.
All blood samples were transferred into heparin-treated centrifuge tubes and centrifuged for 10 min at 4,000 rpm and 4°C. All human urine samples were mixed and transferred (4 ml) into storage tubes. All biological samples were stored at −80°C.
The optimal volume and activity in unit volume of enzyme solution [0.2 M acetic acid/water solution: 0.2 M ammonium acetate/water solution, 15:35 (v/v)] were determined through a pretest of the enzyme (rat plasma, 10 μl, 10 U μl^-1; dog plasma, 10 μl, 10 U μl^-1; human plasma, 20 μl, 20 U μl^-1; human urine, 10 μl, 10 U μl^-1). […] To each fecal sample, 9-fold methanol-normal saline (2:1, v/v) was added, mixed (18,000 rpm, 15 min) by vortexing and centrifuged (10 min, 9,000 rpm, 4°C). […] Then, all plasma, urine, and fecal samples were extracted with ethyl acetate (rat plasma, 800 μl; dog plasma, 1,000 μl; human plasma, 3,000 μl; human urine, 3,000 μl; human feces, 3,000 μl) for at least 3 min by vortexing, centrifuged for 10 min at 3,900 rpm and 4°C; supernatants were transferred into centrifuge tubes and dried with N2. The solid material was dissolved with acetonitrile-water (1:1, v/v) and injected into the ultra high-performance liquid chromatography coupled with triple quadrupole mass spectrometry (UHPLC/MS/MS) system as described below.
The analysis of nonclinical and clinical samples was performed with a UHPLC/MS/MS system that consisted of a Shimadzu Nexera X2 ultra high-performance liquid chromatography (UHPLC) (Shimadzu Corp., Kyoto, Japan) coupled with an AB Sciex API4000 triple-quadrupole mass spectrometry (MS/MS) system (AB Sciex, Foster City, CA, USA) equipped with an electrospray ionization source and controlled by Analyst (v. 1.6.2) software. […] The mobile phase consisted of 0.1% formic acid (v/v) in water (A) and 0.1% formic acid in acetonitrile (B) using a linear gradient of 90% A (0–0.5 min), 90 to 60% A (0.5–1.5 min), 60% to 40% A (1.5–3.5 min), 40% to 10% A (3.5–4.5 min), 10% A (4.5–5.5 min), 10% to 90% A (5.5–6.0 min), and 90% A (6.0–7.5 min) for plasma; and 80% A (0–0.2 min), 80 to 64% A (0.2–2.0 min), 64% to 63% A (2.0–4.4 min), 63% to 0% A (4.4–4.5 min), 0% A (4.5–5.5 min), 0% to 90% A (5.5–5.6 min), 90% A (5.6–5.9 min), 90% to 35% A (5.9–6.0 min), 35% A (6.0–6.2 min), 35 to 80% A (6.2–6.3 min), and 80% A (6.3–7.5 min) for urine and feces.

[1] = both sexes, oral, naringin in humans, clinical studies overall
[2] = both sexes, po, 40 mg, naringin 40 mg p.o. single dose
[3] = both sexes, po, 80 mg, naringin 80 mg p.o. single dose
[4] = both sexes, po, 160 mg, naringin 160 mg (high-fat diet) p.o. single dose
[5] = both sexes, po, 160 mg, naringin 160 mg p.o. single dose
[6] = both sexes, po, 320 mg, naringin 320 mg p.o. single dose
[7] = both sexes, po, 480 mg, naringin 480 mg p.o. single dose
[8] = female, po, 40 mg, naringin 40 mg p.o. single dose
[9] = female, po, 80 mg, naringin 80 mg p.o. single dose
[10] = female, po, 160 mg, naringin 160 mg p.o. single dose
[11] = female, po, 160 mg, naringin 160 mg p.o. single dose, high-fat diet group, female
[12] = male, po, 40 mg, naringin 40 mg p.o. single dose
[13] = male, po, 80 mg, naringin 80 mg p.o. single dose
[14] = male, po, 160 mg, naringin 160 mg p.o. single dose
[15] = male, po, 160 mg, naringin 160 mg p.o. single dose, high-fat diet group, male

For `O=C1C[C@@H](c2ccc(O)cc2)Oc2cc(O)cc(O)c21` [naringenin, Naringenin], the half-life (both sexes, oral, naringenin in humans, studies overall) was 2.6 ± 1.89 h, the “effect of a high-fat diet on t1/2, Tmax, Cmax and AUC” value was “insignificantly altered” and the lag-time in plasma (human plasma, after p.o. naringin) was 5.74 ± 2.38 h. For the same compound, the “time for concentrations to increase to Cmax after the lag-time” value (humans, after p.o. naringin) was “about 3.62 ± 3.19 h”.
Work on `C[C@@H]1O[C@@H](O[C@H]2[C@H](Oc3cc(O)c4c(c3)O[C@H](c3ccc(O)cc3)CC4=O)O[C@H](CO)[C@@H](O)[C@@H]2O)[C@H](O)[C@H](O)[C@H]1O` [naringin, Naringin] yielded a Tmax [1] of 2.09 ± 1.15 h, a half-life [1] of 2.69 ± 1.77 h and an AUC(0-inf) [2] of 9.99 ± 4.22 ng·h/mL. For the same compound, the AUC(0-t) [2] was 7.61 ± 3.5 ng·h/mL, the Cmax [2] was 2.24 ± 0.67 ng/mL and the Tmax [2] was 1.97 ± 1.11 h. It also gave a half-life [2] of 2.48 ± 1.64 h, an MRT last [2] of 2.66 ± 0.443 h and an MRT inf [2] of 4.9 ± 1.69 h. It also gave an AUC(0-inf) [3] of 12.2 ± 3.19 ng·h/mL, an AUC(0-t) [3] of 9.27 ± 3.37 ng·h/mL and a Cmax [3] of 2.94 ± 1.17 ng/mL. For the same compound, the Tmax [3] was 2.09 ± 1.39 h, the half-life [3] was 1.9 ± 1.22 h and the MRT last [3] was 2.8 ± 0.543 h. The MRT inf [3] was 3.83 ± 1.69 h, the AUC(0-inf) [4] was 18.2 ± 5.81 ng·h/mL and the AUC(0-t) [4] was 12.8 ± 4.74 ng·h/mL. For the same compound, the Cmax [4] was 3.04 ± 1.15 ng/mL, the Tmax [4] was 2.66 ± 1.87 h and the half-life [4] was 3.11 ± 1.95 h. For the same compound, the MRT last [4] was 3.45 ± 1.22 h, the MRT inf [4] was 6.19 ± 2.77 h and the AUC(0-inf) [5] was 22.4 ± 9.36 ng·h/mL. It also gave an AUC(0-t) [5] of 15.7 ± 7.51 ng·h/mL, a Cmax [5] of 4.29 ± 2.63 ng/mL and a Tmax [5] of 2.5 ± 1.41 h. For the same compound, the half-life [5] was 3.64 ± 3.01 h, the MRT last [5] was 3.3 ± 1.12 h and the MRT inf [5] was 6.54 ± 4.41 h. The AUC(0-inf) [6] was 39.8 ± 32.2 ng·h/mL, the AUC(0-t) [6] was 37.5 ± 32.2 ng·h/mL and the Cmax [6] was 10.9 ± 12.4 ng/mL. It also gave a Tmax [6] of 1.66 ± 0.99 h, a half-life [6] of 2.51 ± 1.58 h and an MRT last [6] of 3.17 ± 0.677 h. It also gave an MRT inf [6] of 4.01 ± 1.05 h, an AUC(0-inf) [7] of 21.2 ± 7.95 ng·h/mL and an AUC(0-t) [7] of 19.4 ± 7.86 ng·h/mL. It also gave a Cmax [7] of 5.69 ± 2.8 ng/mL, a Tmax [7] of 1.66 ± 0.834 h and a half-life [7] of 2.01 ± 0.498 h. For the same compound, the MRT last [7] was 3.08 ± 0.704 h, the MRT inf [7] was 3.86 ± 0.779 h and the AUC(0-inf) [8] was 5.83 ± 0.737 ng·h/mL. It also gave an AUC(0-t) [8] of 4.64 ± 1.01 ng·h/mL, a Cmax [8] of 1.92 ± 0.516 ng/mL and a Tmax [8] of 2.67 ± 1.53 h. It also gave a half-life [8] of 1.49 ± 0.849 h, an AUC(0-inf) [9] of 11.5 ± 2.69 ng·h/mL and an AUC(0-t) [9] of 10.2 ± 2.28 ng·h/mL. For the same compound, the Cmax [9] was 3.3 ± 0.916 ng/mL, the Tmax [9] was 1.44 ± 0.657 h and the half-life [9] was 1.48 ± 0.448 h. The AUC(0-inf) [10] was 25.9 ± 8.47 ng·h/mL, the AUC(0-t) [10] was 17.8 ± 5.04 ng·h/mL and the Cmax [10] was 3.44 ± 1.08 ng/mL. The Tmax [10] was 3.25 ± 1.71 h, the half-life [10] was 4.57 ± 3.65 h and the AUC(0-inf) [11] was 20.9 ± 4.78 ng·h/mL. For the same compound, the AUC(0-t) [11] was 16.1 ± 3.27 ng·h/mL, the Cmax [11] was 3.78 ± 1.26 ng/mL and the Tmax [11] was 2.88 ± 2.02 h. For the same compound, the half-life [11] was 2.54 ± 1.96 h, the “effect of a high-fat diet on t1/2, Tmax, Cmax and AUC” value was “insignificantly altered” and the AUC(0-inf) [12] was 12.5 ± 3.18 ng·h/mL. The AUC(0-t) [12] was 9.39 ± 3.23 ng·h/mL, the Cmax [12] was 2.43 ± 0.727 ng/mL and the Tmax [12] was 1.55 ± 0.622 h. The half-life [12] was 3.07 ± 1.78 h, the AUC(0-inf) [13] was 13.2 ± 4.16 ng·h/mL and the AUC(0-t) [13] was 8.35 ± 4.36 ng·h/mL. For the same compound, the Cmax [13] was 2.58 ± 1.43 ng/mL, the Tmax [13] was 2.75 ± 1.71 h and the half-life [13] was 2.46 ± 1.83 h. The AUC(0-inf) [14] was 17.7 ± 9.93 ng·h/mL, the AUC(0-t) [14] was 13.7 ± 9.73 ng·h/mL and the Cmax [14] was 5.14 ± 3.6 ng/mL. For the same compound, the Tmax [14] was 1.75 ± 0.5 h, the half-life [14] was 2.41 ± 1.79 h and the AUC(0-inf) [15] was 14.7 ± 5.83 ng·h/mL. For the same compound, the AUC(0-t) [15] was 9.56 ± 3.57 ng·h/mL, the Cmax [15] was 2.3 ± 0.201 ng/mL and the Tmax [15] was 2.44 ± 1.98 h. The half-life [15] was 3.86 ± 2.02 h, the CL (naringin 40 mg p.o. single dose) was 1120 ± 605 mL/min/kg and the CL (naringin 80 mg p.o. single dose) was 1720 ± 832 mL/min/kg. The CL (naringin 160 mg (high-fat diet) p.o. single dose) was 2870 ± 1070 mL/min/kg, the CL (naringin 160 mg p.o. single dose) was 2400 ± 1030 mL/min/kg and the CL (naringin 320 mg p.o. single dose) was 3370 ± 2180 mL/min/kg. It also gave a CL (naringin 480 mg p.o. single dose) of 7950 ± 6200 mL/min/kg.
